Ten compounds from patent US20260274814A1, “THIENYL COMPOUNDS FOR THE TREATMENT OF A CENTRAL NERVOUS SYSTEM DISEASE OR DISORDER” (Coreterra Therapeutics, Inc., priority 2023, published 2026) can be followed below.

For the assay, the system named is mice. Nature of the assay: Neuropharmacological Assay (SmartCube): automated behavioral signature of compound-treated mice compared with a database of reference drug classes. It counts as in vivo. The following applies: for minimal effective dose: Mus musculus, ip. An excerpt:
Neurosci. 2011 Sep. 9; 5: 103 (doi: 10.3389/fnins.2011.00103) (“Roberds”). As reported in Roberds, because psychiatric diseases generally result from disorders of cell-cell communication or circuitry, intact systems are useful in detecting improvement in disease-relevant endpoints. These endpoints are typically behavioral in nature, often requiring human observation and interpretation. To facilitate testing of multiple compounds for behavioral effects relevant to psychiatric disease, PsychoGenics, Inc. (Tarrytown, NY, “PGI”) developed SmartCube™ an automated system in which behaviors of compound-treated mice are captured by digital video and analyzed with computer algorithms. (D. Brunner et al. Drug Discov. Today 2002, 7:S107-S112). PGI Analytical Systems uses data from SmartCube™ to compare the behavioral signature of a test compound to a database of behavioral signatures obtained using a large set of diverse reference compounds. (The composition of the database as well as validation of the method is further described in Roberds). In this way, the neuropharmacological effects of a test compound can be predicted by similarity to major classes of compounds, such as antipsychotics, anxiolytics and antidepressants.
The SmartCube™ system produces an activity signature indicating the probability that the activity of the test compound at the administered dose matches a given class of neuropharmacological agents. (See, e.g., Roberds, FIGS. 2 and 3). The test compound is simultaneously compared against multiple classes of agents; thus, a separate probability is generated for each behavioral effect measured (e.g., anxiolytic activity, analgesic activity, etc.). In table 2 below, these probabilities are reported for each behavioral effect measured as described in Table 1 below.
Provided compounds were dissolved in a mixture of Pharmasolve™ (N-methyl-2-pyrrolidone), polyethylene glycol and propylene glycol, and were injected i.p. 15 min. before the behavioral test. For each compound, injections were administered at 3 different doses. For each behavioral effect measured, results for the 3.0 mg/kg dose are presented. The potency of many of the compounds in the table was also determined in the SmartCube™ system. Test compounds were routinely examined at dose levels of 0.3, 1, 3 and 10 mg per kg (mpk), although the dose range was increased or decreased, if necessary, to obtain a full dose response curve. A compound's minimal effective dose (MED) is a measure of the compound's potency. The MED was defined as the dose (in mpk) having 45% or more total activity in SmartCube. If only one dose was tested, that dose is shown in the MED column of Table 2 even though the dose is not known to be the MED.

The mark [1] stands for this setting: minimal effective dose: dose having 45% or more total activity in SmartCube, i.p., if only one dose tested, that dose is shown, read-out: MED.
The mark [2] stands for this setting: SmartCube class probability, 3.0 mg/kg i.p., 15 min before test.
Where [3] appears, read: SmartCube class probability, 3.0 mg/kg i.p., 15 min before test, hydrochloride, 3 mg/kg.
Setting [4] is: SmartCube probability class, 3.0 mg/kg dose, i.p. 15 min before the behavioral test.
Where [5] appears, read: probability that activity matches this class of agents, 3.0 mg/kg i.p., 15 min before test.
[6] abbreviates: probability that activity matches this class of agents, 3.0 mg/kg i.p., 15 min before test, 3 mg/kg.
Where [7] appears, read: dose having 45% or more total activity in SmartCube, i.p., if only one dose was tested, that dose is shown, read-out: MED (minimal effective dose).

Counter-ions that a name gives are not always drawn. Like-named read-outs stand apart in the source and are kept apart here.

Turning to `NC1CCc2c(C(F)(F)F)csc2C1` (single isomer, unassigned) [Compound 243, 3-(trifluoromethyl)-4,5,6,7-tetrahydrobenzothiophen-6-amine hydrochloride], under setting [1], the minimal effective dose came to 3 mg/kg. Moreover, under setting [2], the AG result was “ND (^ <4%)”, the AN result is listed as “ND (^ <4%)”, the AP result is on record as “ND (^ <4%)” and the AX result was “ND (^ <4%)”. Under setting [2], the CE entry is “ND (^ <4%)”, the HL entry is on record as “ND (^ <4%)”, the MS entry was “ND (^ <4%)” and the PS entry is reported as “ND (^ <4%)”. In addition, under setting [2], the SH result is given as “ND (^ <4%)” and the UK entry is “ND (^ <4%)”. Under setting [3], the AD entry is recorded as “++ (≥24%)”.

Take `Cc1scc2c1CC(N)CC2` (single isomer, unassigned) [Compound 162, 3-methyl-4,5,6,7-tetrahydro-2-benzothiophen-5-amine hydrochloride]: the minimal effective dose under setting [1] is 3 mg/kg. Under setting [2], the AD entry is reported as “ND (^ <4%)”, the AG entry was “ND (^ <4%)”, the AN entry is “ND (^ <4%)” and the AP entry is reported as “ND (^ <4%)”. Besides, under setting [2], the CE entry is “ND (^ <4%)”, the HL entry is listed as “ND (^ <4%)”, the MS entry is reported as “ND (^ <4%)” and the PS entry was “ND (^ <4%)”. In addition, under setting [2], the SH result is listed as “ND (^ <4%)” and the UK entry is “+ (≥4%)”. The AX entry under setting [3] was “+++ (≥49%)”.

In the case of `CC1(N2CCCC2)CCc2sccc2C1.Cl` (single isomer, unassigned) [Compound 284, 1-(5-methyl-4,5,6,7-tetrahydrobenzo[b]thiophen-5-yl)pyrrolidine hydrochloride], under setting [4], the AD result is reported as “ND (^ <4%)”, the AG entry is reported as “ND (^ <4%)”, the AN result is “ND (^ <4%)” and the AP entry is reported as “ND (^ <4%)”. Under setting [4], the AX entry was “ND (^ <4%)”, the CE entry is recorded as “ND (^ <4%)”, the HL entry is listed as “ND (^ <4%)” and the MS result is listed as “ND (^ <4%)”. Under setting [4], the PS entry is reported as “ND (^ <4%)” and the SH entry is reported as “ND (^ <4%)”. Further, the UK entry (SmartCube probability class, 3.0 mg/kg dose, i.p. 15 min before the behavioral test, hydrochloride, 3 mg/kg) is “++ (≥24%)”. In addition, the MED (minimal effective dose: dose having 45% or more total activity in SmartCube, i.p., if only one dose was tested, that dose is shown) is 3 mpk.

Consider `CNC1CCc2c(C)sc(C(F)(F)F)c2C1` (single isomer, unassigned; enantiomer 2) [Compound 105, N, 1-dimethyl-3-(trifluoromethyl)-4,5,6,7-tetrahydro-2-benzothiophen-5-amine hydrochloride enantiomer 2], for which, under “dose having 45% or more total activity in SmartCube, i.p., if only one dose was tested, that dose is shown”, the “MED (minimal effective dose)” value was greater than 3 mpk. Also, under setting [5], the AD entry is on record as “ND (^ <4%)”, the AG result is listed as “ND (^ <4%)”, the AN entry is on record as “ND (^ <4%)” and the AX entry is recorded as “ND (^ <4%)”. Besides, under setting [5], the CE result is recorded as “ND (^ <4%)”, the HL result is on record as “ND (^ <4%)”, the MS result was “ND (^ <4%)” and the PS entry was “ND (^ <4%)”. Also, the SH entry under setting [5] is on record as “ND (^ <4%)”. Under setting [6], the AP result is “ND (^ <4%)” and the UK entry was “ND (^ <4%)”.

Consider `CNC1(C)CCc2c(C(F)(F)F)csc2C1.Cl` (single isomer, unassigned) [Compound 261, N, 6-dimethyl-3-(trifluoromethyl)-5,7-dihydro-4H-benzothiophen-6-amine hydrochloride], for which the minimal effective dose under setting [1] amounted to 3 mg/kg. Besides, under setting [2], the AG entry is “ND (^ <4%)”, the AN result is reported as “ND (^ <4%)”, the AP result was “ND (^ <4%)” and the AX entry is listed as “ND (^ <4%)”. Under setting [2], the CE entry is recorded as “ND (^ <4%)”, the HL result is given as “ND (^ <4%)”, the MS result is “ND (^ <4%)” and the PS entry was “ND (^ <4%)”. Besides, under setting [2], the SH entry is reported as “ND (^ <4%)”. Further, under setting [3], the AD result is listed as “+++ (≥49%)” and the UK entry is listed as “+ (≥4%)”.

Take `CNC1CCc2sc(C(F)(F)F)cc2C1` (stereo not drawn) [Compound 173, N-methyl-2-(trifluoromethyl)-4,5,6,7-tetrahydrobenzothiophen-5-amine hydrochloride]: the minimal effective dose under setting [1] is greater than 3 mg/kg. Under setting [2], the AD result was “ND (^ <4%)”, the AG entry is recorded as “ND (^ <4%)”, the AN entry is on record as “ND (^ <4%)” and the AP result is recorded as “ND (^ <4%)”. Moreover, under setting [2], the AX entry was “ND (^ <4%)”, the CE entry is listed as “ND (^ <4%)”, the HL entry was “ND (^ <4%)” and the MS entry is on record as “ND (^ <4%)”. Also, under setting [2], the PS result is given as “ND (^ <4%)”, the SH entry is reported as “ND (^ <4%)” and the UK entry is “++ (≥24%)”.

Take `CNC1(C)CCc2cc(C(F)(F)F)sc2C1.Cl` (single isomer, unassigned) [Compound 246, N, 6-dimethyl-2-(trifluoromethyl)-5,7-dihydro-4H-benzothiophen-6-amine hydrochloride]: under setting [2], the AG result is listed as “ND (^ <4%)”, the AN entry is given as “ND (^ <4%)”, the AX result was “ND (^ <4%)” and the CE entry is on record as “ND (^ <4%)”. For the same compound, under setting [2], the HL result is reported as “ND (^ <4%)”, the MS entry is on record as “ND (^ <4%)”, the PS entry is “ND (^ <4%)” and the SH result is given as “ND (^ <4%)”. Also, under setting [3], the AD result is recorded as “+ (≥4%)”, the AP result is listed as “++ (≥24%)” and the UK entry was “++ (≥24%)”. Further, the MED (minimal effective dose: dose having 45% or more total activity in SmartCube, i.p., if only one dose tested, that dose is shown) is reported as 3 mpk.

Take `CNC1(C)CCc2c(C(F)(F)F)csc2C1.Cl` (single isomer, unassigned) [Compound 262, N, 6-dimethyl-3-(trifluoromethyl)-5,7-dihydro-4H-benzothiophen-6-amine hydrochloride]: under setting [2], the AG result is on record as “ND (^ <4%)”, the AN result is given as “ND (^ <4%)”, the AP result is “ND (^ <4%)” and the AX result was “ND (^ <4%)”. Under setting [2], the CE entry is recorded as “ND (^ <4%)”, the HL entry is on record as “ND (^ <4%)”, the MS entry is “ND (^ <4%)” and the PS entry was “ND (^ <4%)”. In addition, under setting [2], the SH entry is reported as “ND (^ <4%)”. Also, under setting [3], the AD entry is listed as “++ (≥24%)” and the UK result is recorded as “ND (^ <4%)”. Also, the MED (minimal effective dose: dose having 45% or more total activity in SmartCube, i.p., if only one dose tested, that dose is shown, hydrochloride) is listed as greater than 3 mpk.

On to `CNC1CCc2c(sc(Cl)c2C)C1` (stereo not drawn) [Compound 92, 2-chloro-N, 3-dimethyl-4,5,6,7-tetrahydrobenzothiophen-6-amine hydrochloride], for which, under setting [7], the minimal effective dose is 3 mg/kg. For the same compound, under setting [5], the AD result was “++++ (≥74%)”, the AG result is given as “ND (^ <4%)”, the AN result was “ND (^ <4%)” and the AP result is reported as “ND (^ <4%)”. Besides, under setting [5], the AX result is given as “ND (^ <4%)”, the CE result is “ND (^ <4%)”, the HL entry is “ND (^ <4%)” and the MS entry is recorded as “ND (^ <4%)”. Under setting [5], the PS entry is given as “ND (^ <4%)”, the SH result was “ND (^ <4%)” and the UK entry is listed as “ND (^ <4%)”.

Take `CN(C)C1(C)CCc2ccsc2C1` (single isomer, unassigned) [Compound 119, N, N, 6-trimethyl-5,7-dihydro-4H-benzothiophen-6-amine hydrochloride]: the minimal effective dose under setting [7] was found to be 3 mg/kg. Under setting [5], the AD result is recorded as “ND (^ <4%)”, the AG entry is reported as “ND (^ <4%)”, the AN result is “ND (^ <4%)” and the AP result is reported as “ND (^ <4%)”. Further, under setting [5], the AX entry is on record as “++++ (≥74%)”, the CE entry is listed as “ND (^ <4%)”, the HL entry was “ND (^ <4%)” and the MS entry is given as “ND (^ <4%)”. Besides, under setting [5], the PS entry is listed as “ND (^ <4%)”, the SH result is “ND (^ <4%)” and the UK entry is given as “ND (^ <4%)”.
